Experimental data from patent US20180344637A1, “WATER SOLUBLE MICELLAR DRUG DELIVERY AGENTS” (Wayne State University, priority 2015, published 2018).
Values after ≈ are worked out from the molar mass of the structure shown.

Legend:
[1] = test system: MiaPaCa-2 cells; experiment: In vitro MTT cytotoxicity assay; assay type: cell-based, human; conditions: 72 h
Procedure: (§1) Human pancreatic cancer cell lines MiaPaCa-2 and AsPC-1 were used. Both cell lines were maintained in Dulbecco's Modified Eagle's Medium (DMEM; Invitrogen), supplemented with 5% FBS, 2 mmol/L glutamine, 50 units/mL penicillin, and 50 μg/mL streptomycin under standard culture conditions. The cell lines have been tested and authenticated in the core facility of Applied Genomics Technology Center at Wayne State University. The method used for testing was short tandem repeat profiling using the PowerPlex 16 System from Promega.
(§2) The in vitro cytotoxicity of free CDF, CUR, SMA and micelles was evaluated by MTT cytotoxicity assay based on measurement of the activity of enzymes present in live cells that reduces MTT to give a purple color. Cells were seeded in a 96-well culture plate and the formulations were applied 24 h after seeding as freshly prepared solutions in PBS (pH 7.4) using between 100 to 1000 nM concentrations of the test agents. MTT (0.5 mg/ml) was added at the end of treatment (72 h) and plates incubated at 37° C. for 2 h, followed by replacement of media with DMSO at room temperature for 30 min and absorbance were measured at 590 nm using Ultra Multi-functional Micro plate Reader (TECAN).

[2] = test system: AsPC-1 cells; experiment: In vitro MTT cytotoxicity assay; assay type: cell-based, human; conditions: 72 h
Procedure: as §1, §2

[3] = cited from earlier work
[4] = test system: CD44; experiment: Western blot analysis of CD44 expression; assay type: cell-based, human; conditions: 250 nM, 48 h, triple marker positive CSLCs, versus untreated and HA-SMA controls
Procedure: Triple marker positive CSLCs derived from MiaPaCa-2 were plated and allowed to attach for 36 h. CDF loaded formulations were directly added to cell cultures at 250 nM concentration and incubated for 48 h. Untreated (control) and HASMA treated (control) cells were incubated in the medium containing an equivalent concentration of PBS. After incubation, the cells were collected in PBS, and whole cell lysate was prepared by suspending the cells in 150 μL of lysis buffer [1 mol/L Tris-HCl (pH 7.5), 150 mmol/L NaCl, 1 mmol/L EDTA, 0.1% Triton X-100, 0.1 mmol/L sodium orthovanadate, 1 mmol/L phenylmethylsulfonyl fluoride ([…]), and 2 μg/mL leupeptin and 2μg,/mL aprotinin] lysed, and centrifuged. The cells were disrupted by sonication (Branson Ultrasonics, Danbury, Conn.), and the total protein content was determined by bicinchoninic acid (BCA) assay. For immunoblotting, 30 μg of total proteins was separated on SDS-PAGE, electro-transferred onto nitrocellulose membranes, and probed with specific antibodies ([…], MA). Detection of specific proteins was carried out with an enhanced chemiluminescence western blotting kit according to the manufacturer's instructions (Life Technologies, Waltham, Mass.).

[5] = test system: MiaPaCa-2 cells; experiment: MTT assay before and after HA receptor blockade; assay type: cell-based, human; conditions: MiaPaCa-2, 72 h
Source text: FIG. 13(c) and FIG. 13(d) show comparisons of percent cell viability of different formulations before and after HA receptor blockade.

[6] = test system: CD44+ cells (CD44+/CD133+/EpCAM+ CSLCs from MiaPaCa-2); experiment: MTT assay on CD44+ versus CD44− pancreatic cancer cells; assay type: cell-based, human; conditions: 72 h
Procedure: The CSLCs (triple-marker positive; CD44+/CD133+/EpCAM+) and triple-marker negative (CD44−/CD133−/EpCAM−) cells were isolated from human pancreatic MiaPaCa-2 cells, by fluorescence-activated cell sorting (FACS) technique. The postsorted cells were subsequently maintained in 5% FBS-DMEM media at 37° C. under standard culture conditions.
Triple-marker positive (CD44+/CD133+/EpCAM+) CSLCs and triple-marker-negative (CD44−/CD133−/EpCAM−) cells were isolated and cultured as described in above and seeded in a 96-well culture plate, and subsequently free CDF, HA-SMA, nontargeted (SMA-CDF), and targeted (HA-SMA-CDF) nanomicelles were applied 24 h after seeding as a freshly prepared solution in DMSO diluted with PBS (pH 7.4) at between 250 to 750 nM concentration, MTT reagent was added and the absorbance measured at 595 nm using an Ultramultifunctional Microplate Reader ([…], Switzerland), and percent cell viability was determined by comparing the values with appropriate controls.

| SMILES | cell viability ([1]; 1000 nM CDF equivalent concentration, MiaPaCa-2) | anticancer activity compared to free CMN (in words) ([1]; MTT) | IC50 ([1]; MiaPaCa-2 cells) | IC50 [2] | water solubility ([3]; free form) | expression of CD44 levels (in words) [4] | IC50 ([5]; after receptor blockade using free soluble HA) | IC50 ([5]; before the blockade of HA receptors) | IC50 [6] | water solubility (estimated) [3] |
| --- | --- | --- | --- | --- | --- | --- | --- | --- | --- | --- |
| COc1cc(/C=C/C(=O)C(=Cc2ccc(F)c(F)c2)C(=O)/C=C/c2ccc(O)c(OC)c2)ccc1O [CDF, curcumin difluorinated] | 28.47±2.29% | significantly improved anticancer activity | 0.4 ± 0.00453 µM | 0.81 ± 0.00151 µM | 0.6 µg/mL (≈ 1.22 µM) | marked reduction | 0.473 ± 0.00869 µM | 0.465 ± 0.00734 µM | 0.41 ± 0.00364 µM |  |
| CC(=O)O[C@@]12CO[C@@H]1C[C@H](O)[C@@]1(C)C(=O)[C@H](O)C3=C(C)[C@@H](OC(=O)[C@H](O)[C@@H](NC(=O)OC(C)(C)C)c4ccccc4)C[C@@](O)([C@@H](OC(=O)c4ccccc4)[C@H]21)C3(C)C [Docetaxel, docetaxel] |  |  |  |  |  |  |  |  |  | 10 to 20 µM |
| CC(=O)O[C@H]1C(=O)[C@@]2(C)[C@H]([C@H](OC(=O)c3ccccc3)[C@]3(O)C[C@H](OC(=O)[C@H](O)[C@@H](NC(=O)c4ccccc4)c4ccccc4)C(C)=C1C3(C)C)[C@]1(OC(C)=O)CO[C@@H]1C[C@@H]2O [Paclitaxel, paclitaxel] |  |  |  |  |  |  |  |  |  | 10 to 20 µM |
